# Reference: PMC7936271, “Discovery and characterization of bromodomain 2–specific inhibitors of BRDT” (Proceedings of the National Academy of Sciences of the …, 2021)
# pIC50: −log10 of the molar value. Values joined by “and” are separate entries in the source; they are usually repeats but may differ in a detail not shown here. Equal entries are not always repeated. “Also recorded” adds a separate entry of the source. Where two headings read alike, the source gives them in different places.
# Tests used:
# [1] = biological target: BRDT-BD1
# [2] = biological target: BRDT-BD2
# [3] = biological target: BRDT-BD2 (Homo sapiens, UniProt Q58F21); assay: AlphaScreen competition assay with biotinylated JQ1, BRDT-BD2; type: binding; design: BRDT-BD2, NP_001717.3 amino acid 269− 380; made in house; host or cells: E. coli NiCo21 (DE3); details: for BRDT-BD2 activity / affinity: result in words
# [4] = Metabolic stability assay in human liver microsomes; type: in vitro ADME; details: for half-life at 2 μM / t1/2, min HLM: human liver microsomes, 37 °C, data >60 min are an extrapolated estimate, 2.0 μM; for half-life at 2 μM: read-out: t1/2, min HLM
# Description: (§1) 2d) Metabolic stability assay in liver microsomes. […]
# (§2) The reactions are terminated by adding equivalent
# (§3) volume of ice-cold CH3OH and vortexed.
# (§4) temperature was ma i ntained at 40 °C.
# (§5) (acetonitrile containing 0.1% formic acid). […]
# [5] = biological target: T1, BRD4-BD1 (Homo sapiens, UniProt O60885); assay: AlphaScreen competition assay with biotinylated JQ1, BRD4-BD1; type: binding
# T1 construct: amino acid 44− 168; made in house; host or cells: E. coli NiCo21 (DE3)
# [6] = Metabolic stability assay in mouse liver microsomes; type: in vitro ADME; details: for half-life at 2 μM / t1/2, min MLM: mouse liver microsomes, 37 °C, data >60 min are an extrapolated estimate, 2.0 μM; for half-life at 2 μM: read-out: t1/2, min MLM; for mouse microsomal stability: result in words
# Description: as §1, §2, §3, §4, §5
# [7] = biological target: BRD4-BD2
# [8] = biological target: BRD4-BD1
# [9] = biological target: T2, BRDT-BD1 (Homo sapiens, UniProt Q58F21); assay: AlphaScreen competition assay with biotinylated JQ1, BRDT-BD1; type: binding; details: for inhibition at 10 µM: read-out: Inhibition at 10 µM for BRDT-BD1
# T2 construct: NP_001717.3 amino acid 21− 137; made in house; host or cells: E. coli NiCo21 (DE3)
# [10] = biological target: BRD4-BD2 (Homo sapiens, UniProt O60885); assay: AlphaScreen competition assay with biotinylated JQ1, BRD4-BD2; type: binding; design: BD2, NP_055114.1 amino acid 333− 460; made in house; host or cells: E. coli NiCo21 (DE3)
# [11] = ratio of AlphaScreen IC50 values
# [12] = AlphaScreen, biotinylated JQ1 as ligand, NE: no effect at 20 µM
# [13] = AlphaScreen, biotinylated JQ1 as ligand
compound,measurement,setting,value
CC(=O)Nc1cc(NC(=O)c2ccc3c(c2)c(-c2ccc(N)nc2)nn3C(C)C)ccc1C,pIC50,[1],< 5.00
same,pIC50,[2],6.60
CC(=O)Nc1cc(NC(=O)c2ccc3c(c2)c(-c2cnc(N)cc2C)nn3C)ccc1C,pIC50,[2],6.90
CCn1nc(-c2ccc(N)nc2)c2cc(C(=O)Nc3ccc(C)c(NC(C)=O)c3)ccc21,pIC50,[1],< 5.00
same,pIC50,[2],7.10
CNC(=O)c1ccc(C(=O)Nc2cc(NC(=O)c3ccc4c(c3)c(-c3ccc(C)cc3C)nn4C)ccc2OC)cc1,pIC50,[2],7.59
CNC(=O)c1ccc(C(=O)Nc2cc(NC(=O)c3ccc4c(c3)c(-c3ccc(N)cc3)nn4C)ccc2OC)cc1,pIC50,[1],< 5.00
same,pIC50,[2],7.82
CNC(=O)c1ccc(C(=O)Nc2cc(NC(=O)c3ccc4c(c3)c(-c3ccc(N)cc3C)nn4C)ccc2OC)cc1,pIC50,[1],< 5.00
same,pIC50,[2],7.92
CNC(=O)c1ccc(C(=O)Nc2cc(NC(=O)c3ccc4c(c3)c(-c3ccc(OC)cc3)nn4C)ccc2C)cc1,pIC50,[1],< 5.00
same,pIC50,[2],6.28
CNC(=O)c1ccc(C(=O)Nc2cc(NC(=O)c3ccc4c(c3)c(-c3ccccc3C)nn4C)ccc2OC)cc1,pIC50,[1],5.20
same,pIC50,[2],7.21
COc1ccc(NC(=O)c2ccc3c(c2)c(-c2cc4ccccc4n2C)nn3C)c(C)c1,pIC50,[2],6.74
COc1ccc(NC(=O)c2ccc3c(c2)c(-c2cc4ccccc4n2C)nn3C)c(Cl)c1,pIC50,[2],< 5.90
COc1ccc(NC(=O)c2ccc3c(c2)c(-c2cc4ccccc4n2C)nn3C)c(F)c1,pIC50,[2],6.69
COc1ccc(NC(=O)c2ccc3c(c2)c(-c2cc4ccccc4n2C)nn3C)c(OC)c1,pIC50,[2],6.03
COc1ccc(NC(=O)c2ccc3c(c2)c(-c2cc4ccccc4n2C)nn3C)cc1,pIC50,[2],6.92
COc1ccc(NC(=O)c2ccc3c(c2)c(-c2cc4ccccc4n2C)nn3C)cc1C,pIC50,[2],6.95
COc1ccc(NC(=O)c2ccc3c(c2)c(-c2cc4ccccc4n2C)nn3C)cc1Cl,pIC50,[2],6.79
COc1ccc(NC(=O)c2ccc3c(c2)c(-c2cc4ccccc4n2C)nn3C)cc1F,pIC50,[2],6.92
COc1ccc(NC(=O)c2ccc3c(c2)c(-c2cc4ccccc4n2C)nn3C)cc1OC,pIC50,[2],7.00
COc1ccc(NC(=O)c2ccc3c(c2)c(-c2ccc(N)cc2C)nn3C)cc1NC(=O)c1ccccc1,pIC50,[2],7.46
Cc1cc(N)ccc1-c1nn(C)c2ccc(C(=O)Nc3ccccc3)cc12,pIC50,[1],< 5.00
same,pIC50,[2],7.05
CNC(=O)c1ccc(C(=O)Nc2cc(NC(=O)c3ccc4c(c3)c(-c3cc5ccccc5n3C)nn4C)ccc2OC)cc1 [Compound 3],BRDT-BD2 activity / affinity,[3]; AlphaScreen,low nanomolar affinity
same,pIC50,[2],7.66
CNC(=O)c1ccc(C(=O)Nc2cc(NC(=O)c3ccc4c(c3)c(-c3cc5ccccc5n3C)nn4C)ccc2C)cc1 [Compound 8],half-life at 2 μM,[4],2.5 h
same,IC50,[5],26200 nM
same,half-life at 2 μM,[6],0.85 h
same,% inhibition at 10 µM,[1],11%
same,pIC50,[1],< 5.00
same,pIC50,[7],7.51
same,IC50,[3],13 nM
same,BRDT-BD2 activity / affinity,[3]; AlphaScreen,low nanomolar affinity
same,BRDT-BD2 vs. BRD4-BD2,[3]; [11],2.4
same,BRDT-BD2 vs. BRDT-BD1 (BRDT-BD2 selectivity),[3]; [11],>750
same,pIC50,[2],7.89
same,pIC50,[8],4.58
same,IC50,[9],> 10000 nM
same,inhibition at 10 µM,[9],11%
same,IC50,[10],31 nM
same,BRD4-BD2 vs. BRD4-BD1 (BRD4-BD2 selectivity),[10]; [11],850
CNC(=O)c1ccc(C(=O)Nc2cc(NC(=O)c3ccc4c(c3)c(-c3ccc(N)nc3)nn4C)ccc2C)cc1 [Compound 10],half-life at 2 μM,[4],4 h
same,human microsomal stability,[4]; result in words,high metabolic stability
same,IC50,[5],> 10000 nM
same,inhibition at 10 µM,[5]; read-out: Inhibition at 10 µM for BRD4-BD1,20%
same,half-life at 2 μM,[6],3.17 h
same,mouse microsomal stability,[6],high metabolic stability; also recorded: high mouse microsomal stability
same,% inhibition at 10 µM,[1],16%
same,pIC50,[1],< 5.00
same,pIC50,[7],7.34
same,IC50,[3],17 nM
same,BRDT-BD2 activity / affinity,[3]; AlphaScreen,slightly lower affinity than CDD-1102
same,BRDT-BD2 vs. BRD4-BD2,[3]; [11],2.7
same,BRDT-BD2 vs. BRDT-BD1 (BRDT-BD2 selectivity),[3]; [11],>600
same,pIC50,[2],7.77
same,% inhibition at 10 µM,[8],20%
same,pIC50,[8],< 5.00
same,inhibition at 10 µM,[9],16%
same,IC50,[10],46 nM
same,BRD4-BD2 vs. BRD4-BD1 (BRD4-BD2 selectivity),[10]; [11],>210
CNC(=O)c1ccc(C(=O)Nc2cc(NC(=O)c3ccc4c(c3)c(-c3ccncc3)nn4C)ccc2C)cc1 [Compound 12],BRDT-BD2 activity / affinity,[3]; AlphaScreen,weaker-binding
same,pIC50,[2],6.01
CNC(=O)c1ccc(C(=O)Nc2cc(NC(=O)c3ccc4c(c3)c(-c3cnc(N)nc3)nn4C)ccc2C)cc1 [Compound 13],pIC50,[1],< 5.00
same,BRDT-BD2 activity / affinity,[3]; AlphaScreen,lower affinity than compound 10
same,pIC50,[2],6.86
CNC(=O)c1ccc(C(=O)Nc2cc(NC(=O)c3ccc4c(c3)c(-c3ccc(N)nc3C)nn4C)ccc2C)cc1 [Compound 14],BRDT-BD2 activity / affinity,[3]; AlphaScreen,lower affinity than compound 10
same,pIC50,[2],7.03
CNC(=O)c1ccc(C(=O)Nc2cc(NC(=O)c3ccc4c(c3)c(-c3cnc(N)cc3C)nn4C)ccc2C)cc1 [Compound 15],"t1/2, min HLM",[4],3.67 h
same,IC50,[5]; [12],> 20000 nM
same,"t1/2, min MLM",[6],2.5 h
same,mouse microsomal stability,[6],high mouse microsomal stability
same,pIC50,[7],6.85
same,IC50,[3]; [13],22 nM
same,BRDT-BD2 activity / affinity,[3]; AlphaScreen,lower affinity than compound 10
same,BRDT-BD2 vs. BRD4-BD2,"[3]; ratio of AlphaScreen IC50 values, listed as 15 (CDD-1349)",6.4
same,BRDT-BD2 vs. BRD4-BD2,"[3]; ratio of AlphaScreen IC50 values, listed as CDD-1349",sixfold
same,pIC50,[2],7.66
same,IC50,[9]; [12],> 20000 nM
same,BRD4-BD2 vs. BRD4-BD1 (BRD4-BD2 selectivity),[10],>140
same,IC50,[10]; [13],140 nM
CC(=O)Nc1cc(NC(=O)c2ccc3c(c2)c(-c2ccc(N)nc2)nn3C)ccc1C [Compound 17],"t1/2, min HLM",[4],8.17 h
same,IC50,[5]; [12],25100 nM
same,"t1/2, min MLM",[6],3.33 h
same,mouse microsomal stability,[6],high mouse microsomal stability
same,pIC50,[1],< 5.00 and 4.44
same,pIC50,[7],7.29
same,BRDT-BD2 vs. BRDT-BD1 (BRDT-BD2 selectivity),[3],770
same,IC50,[3]; [13],47 nM
same,BRDT-BD2 vs. BRD4-BD2,[3]; [11],1.1
same,pIC50,[2],7.33
same,pIC50,[8],4.60
same,IC50,[9]; [12],36200 nM
same,BRD4-BD2 vs. BRD4-BD1 (BRD4-BD2 selectivity),[10],490
same,IC50,[10]; [13],51 nM
CC(=O)Nc1cccc(NC(=O)c2ccc3c(c2)c(-c2ccc(N)cc2C)nn3C)c1 [Compound 21],"t1/2, min HLM",[4],3 h
same,IC50,[5]; [12],14100 nM
same,"t1/2, min MLM",[6],0.15 h
same,pIC50,[1],< 5.00 and 4.71
same,pIC50,[7],7.68
same,BRDT-BD2 vs. BRDT-BD1 (BRDT-BD2 selectivity),[3],"1,400"
same,IC50,[3]; [13],14 nM
same,BRDT-BD2 activity / affinity,[3]; AlphaScreen,minimal effects on potency
same,BRDT-BD2 vs. BRD4-BD2,[3]; [11],1.5
same,pIC50,[2],7.85
same,pIC50,[8],4.85
same,IC50,[9]; [12],19700 nM
same,BRD4-BD2 vs. BRD4-BD1 (BRD4-BD2 selectivity),[10],670
same,IC50,[10]; [13],21 nM
CNC(=O)c1cc(NC(=O)c2ccc3c(c2)c(-c2ccc(N)cc2C)nn3C)ccc1C [Compound 22],half-life at 2 μM,[4],7.67 h
same,IC50,[5],10900 nM
same,half-life at 2 μM,[6],2.5 h
same,mouse microsomal stability,[6],high mouse microsomal stability
same,pIC50,[1],< 5.00 and 4.97
same,pIC50,[7],7.70
same,IC50,[3],18 nM
same,BRDT-BD2 activity / affinity,[3]; AlphaScreen,minimal effects on potency
same,BRDT-BD2 vs. BRD4-BD2,[3]; [11],1.1
same,BRDT-BD2 vs. BRDT-BD1 (BRDT-BD2 selectivity),[3]; [11],590
same,pIC50,[2],7.74
same,pIC50,[8],4.96
same,IC50,[9],10700 nM
same,IC50,[10],20 nM
same,BRD4-BD2 vs. BRD4-BD1 (BRD4-BD2 selectivity),[10]; [11],540
COc1ccc(NC(=O)c2ccc3c(c2)c(-c2ccc(N)cc2C)nn3C)cc1 [Compound 24],BRDT-BD2 activity / affinity,[3]; AlphaScreen,dramatic loss of activity
same,pIC50,[2],7.27
COc1ccc(N(C)C(=O)c2ccc3c(c2)c(-c2ccc(N)cc2C)nn3C)cc1 [Compound 26],pIC50,[1],< 5.00
same,BRDT-BD2 activity / affinity,[3]; AlphaScreen,loss of potency
same,pIC50,[2],< 6.00
COc1ccc(NC(=O)c2ccc3nn(C)c(-c4ccc(N)cc4C)c3c2)cc1 [Compound 27],pIC50,[1],< 5.00
same,BRDT-BD2 activity / affinity,[3]; AlphaScreen,dramatic loss of activity; also recorded: inactivity
same,pIC50,[2],4.76
